Measured values taken from patent publication US5635349A, “High-throughput screening assay for inhibitors of nucleic acid polymerases” (Tularik, Inc., priority 1994, dated 1997).
Several values for one entry are separate records, joined by “and”; a condition that tells them apart may be missing. Equal values may be shown once.

Legend:
[1] = target: E. coli. RNA polymerase holoenzyme supplemented with additional recombinant sigma 70 (Escherichia coli, UniProt P00579+P0A7Z4+P0A8T7+P0A8V2); experiment: Prokaryotic (E. coli) RNA Polymerase Assay (Promoter Specific); assay type: biochemical; conditions: positive control at 20 ug/ml, column 12 rows A and B, plates #1 and #2
Excerpt: Prokaryotic (E. coli) RNA Polymerase Assay (Promoter Specific)
In this example, the targeted polymerase is the E. coli. RNA polymerase holoenzyme (α2 ββ'[…] ) supplemented with additional recombinant sigma 70 to increase the percentage of promoter specific transcription over non-specific elongation. GTP is omitted from the assay mixture. The substrate is a pBR-based plasmid with sigma 70, -10+-30 recognition sequences and a 260 nt G-free cassette
1. Make 1.45× assay buffer from 5× stock (1× final with extract and enzyme added). Add fresh components (polyethyleneglycol (PEG), dithiothreitol (DTT), and DNA) to final 1x solution; 50 mM Tris-Ac at pH 7.8, 100 μm ATP, 100 μM UTP, 1 μM CTP, 20 μg Bovine Serum Albumin/80 μl, PEG 3%, plasmid DNA template (described above), 0.3-0.5 μg/80 μl (from dose response), 2 mM DTT. Filter using 0.45 μm filter.
2. Make 1× storage buffer (50 mM Tris-Ac, 100 mM KAc, 100 mM MgCl2, 0.25 mg/ml BSA, 5 mM DTT). Add enzyme and [[…]]-CTP to a concentration such that there are about 80-100K cpm CTP in 15 μl, and enough enzyme (from dose response) to get 3000 cpm incorporated.
(§1) 3. Add 60 μl of assay buffer to filterplate.
(§2) 4. Add 8 μl of extract or compounds to filterplate.
5. Add 15 μl of ^33 P CTP+enzyme to filterplate. Shake 10 min.
(§3) 6. Incubate 45 min at 34° C.
7. Add 100 μl of DEAE Sephacell (Pharmacia) beads (20% slurry in 60% methanol, 20 mM EDTA, 0.02% NP-40). […]

[2] = tested on: Eukaryotic (Yeast) RNA Polymerase II; experiment: Eukaryotic (Yeast) RNA Polymerase II Assay (Promoter Nonspecific); assay type: biochemical, Candida; conditions: positive control at 20 ug/ml, column 12 rows A and B, plates #1 and #2
Method: Eukaryotic (Yeast) RNA Polymerase II Assay (Promoter Nonspecific)
1. Make 1.45× assay buffer from 5× stock (1× final with extract and enzyme added). Add fresh components (PEG, DTT, and MnCl2) to final 1× solution: 50 mM Tris-Acetate at pH 7.8, 50 mM KAc, 0.4 mM ATP, 0.2 mM GTP and UTP, 1 μM CTP, 20 μg BSA/80 μl, PEG 3%, single stranded DNA, 0.2 μg/80 μl, 2 mM DTT, and 2 mM MnCl2. Filtrate using 0.45 μm filter.
2. Make 1× storage buffer (50 mM Tris-Ac, 100 mM KAc, 0.25 mg/ml BSA, 5 mM DTT). Add enzyme and [α-^33 P]-CTP to a concentration such that there are about 80-100 CK cpm of hot CTP in 15 μl, and enough enzyme (from dose response) to get 3000 cpm incorporated.
as §1, §2
5. Add 15 μl hot CTP+enzyme to filterplate. Shake 10 min.
as §3
7. Add 100 μl of DEAE beads (20% slurry in 60% methanol, 20 mM EDTA, 0.02% NP-40). Incubate 1 hr.
8. Wash 5 times (300 μl each) with 0.5M dibasic NaPi, 0.5% NP-40, 10% ethanol.
9. Seal bottom, add 160 μl cocktail, seal top, and count.
Column 1, rows A-D of both plate #1 and #2 are background counts. Column 1, rows E-H of both plate #1 and #2 are counts obtained without the additon of label. Column 12, rows A and B of both plate #1 and #2 are positive controls using the eukaryotic RNA polymerase II inhibitor α-amanitinat 20 ug/ml. […]

Chain of E. coli. RNA polymerase holoenzyme supplemented with additional recombinant sigma 70 (P0A7Z4 whole entry): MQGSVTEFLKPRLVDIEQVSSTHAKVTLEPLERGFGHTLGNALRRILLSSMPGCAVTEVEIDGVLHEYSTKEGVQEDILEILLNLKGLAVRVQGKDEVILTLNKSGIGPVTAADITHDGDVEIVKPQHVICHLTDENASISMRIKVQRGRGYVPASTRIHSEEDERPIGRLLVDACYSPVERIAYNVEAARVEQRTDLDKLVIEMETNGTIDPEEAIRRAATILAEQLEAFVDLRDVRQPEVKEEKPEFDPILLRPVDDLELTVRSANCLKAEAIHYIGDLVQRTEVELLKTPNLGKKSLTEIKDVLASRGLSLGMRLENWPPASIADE
Chain of E. coli. RNA polymerase holoenzyme supplemented with additional recombinant sigma 70 (P0A8V2 whole entry): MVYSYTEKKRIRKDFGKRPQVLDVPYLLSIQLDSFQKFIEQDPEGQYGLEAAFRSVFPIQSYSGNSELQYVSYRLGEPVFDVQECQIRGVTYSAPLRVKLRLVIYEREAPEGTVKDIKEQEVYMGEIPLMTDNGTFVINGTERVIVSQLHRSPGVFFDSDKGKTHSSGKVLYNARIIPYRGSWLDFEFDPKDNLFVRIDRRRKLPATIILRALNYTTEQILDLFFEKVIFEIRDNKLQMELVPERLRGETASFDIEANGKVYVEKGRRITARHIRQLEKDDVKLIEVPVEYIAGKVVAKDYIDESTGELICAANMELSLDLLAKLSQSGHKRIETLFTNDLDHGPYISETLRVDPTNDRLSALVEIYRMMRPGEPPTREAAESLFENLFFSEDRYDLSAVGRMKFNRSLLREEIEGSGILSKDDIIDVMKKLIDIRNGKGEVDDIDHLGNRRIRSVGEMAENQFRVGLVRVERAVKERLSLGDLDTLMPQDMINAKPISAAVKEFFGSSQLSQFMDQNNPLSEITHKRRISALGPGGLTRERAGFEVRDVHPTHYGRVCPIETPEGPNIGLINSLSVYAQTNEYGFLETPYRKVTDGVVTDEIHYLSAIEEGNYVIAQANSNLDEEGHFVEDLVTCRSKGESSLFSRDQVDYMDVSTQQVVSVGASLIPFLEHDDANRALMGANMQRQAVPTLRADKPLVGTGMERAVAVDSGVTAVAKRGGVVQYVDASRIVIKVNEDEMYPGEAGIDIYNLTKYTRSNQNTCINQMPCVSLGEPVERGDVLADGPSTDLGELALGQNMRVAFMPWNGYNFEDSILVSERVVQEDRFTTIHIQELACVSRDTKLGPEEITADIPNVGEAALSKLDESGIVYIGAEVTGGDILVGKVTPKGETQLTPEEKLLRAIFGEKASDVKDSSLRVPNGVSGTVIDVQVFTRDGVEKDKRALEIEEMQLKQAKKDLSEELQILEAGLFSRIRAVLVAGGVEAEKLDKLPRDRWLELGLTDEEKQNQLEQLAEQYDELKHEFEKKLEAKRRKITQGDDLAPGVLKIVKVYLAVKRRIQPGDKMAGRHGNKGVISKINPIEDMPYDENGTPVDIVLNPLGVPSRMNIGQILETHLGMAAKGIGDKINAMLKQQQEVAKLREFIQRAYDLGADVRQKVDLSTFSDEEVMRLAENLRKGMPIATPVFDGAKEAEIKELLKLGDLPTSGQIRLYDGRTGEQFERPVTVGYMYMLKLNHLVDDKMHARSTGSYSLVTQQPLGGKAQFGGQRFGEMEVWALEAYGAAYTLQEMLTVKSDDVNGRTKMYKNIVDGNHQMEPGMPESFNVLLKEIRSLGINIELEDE
Chain of E. coli. RNA polymerase holoenzyme supplemented with additional recombinant sigma 70 (P0A8T7 whole entry): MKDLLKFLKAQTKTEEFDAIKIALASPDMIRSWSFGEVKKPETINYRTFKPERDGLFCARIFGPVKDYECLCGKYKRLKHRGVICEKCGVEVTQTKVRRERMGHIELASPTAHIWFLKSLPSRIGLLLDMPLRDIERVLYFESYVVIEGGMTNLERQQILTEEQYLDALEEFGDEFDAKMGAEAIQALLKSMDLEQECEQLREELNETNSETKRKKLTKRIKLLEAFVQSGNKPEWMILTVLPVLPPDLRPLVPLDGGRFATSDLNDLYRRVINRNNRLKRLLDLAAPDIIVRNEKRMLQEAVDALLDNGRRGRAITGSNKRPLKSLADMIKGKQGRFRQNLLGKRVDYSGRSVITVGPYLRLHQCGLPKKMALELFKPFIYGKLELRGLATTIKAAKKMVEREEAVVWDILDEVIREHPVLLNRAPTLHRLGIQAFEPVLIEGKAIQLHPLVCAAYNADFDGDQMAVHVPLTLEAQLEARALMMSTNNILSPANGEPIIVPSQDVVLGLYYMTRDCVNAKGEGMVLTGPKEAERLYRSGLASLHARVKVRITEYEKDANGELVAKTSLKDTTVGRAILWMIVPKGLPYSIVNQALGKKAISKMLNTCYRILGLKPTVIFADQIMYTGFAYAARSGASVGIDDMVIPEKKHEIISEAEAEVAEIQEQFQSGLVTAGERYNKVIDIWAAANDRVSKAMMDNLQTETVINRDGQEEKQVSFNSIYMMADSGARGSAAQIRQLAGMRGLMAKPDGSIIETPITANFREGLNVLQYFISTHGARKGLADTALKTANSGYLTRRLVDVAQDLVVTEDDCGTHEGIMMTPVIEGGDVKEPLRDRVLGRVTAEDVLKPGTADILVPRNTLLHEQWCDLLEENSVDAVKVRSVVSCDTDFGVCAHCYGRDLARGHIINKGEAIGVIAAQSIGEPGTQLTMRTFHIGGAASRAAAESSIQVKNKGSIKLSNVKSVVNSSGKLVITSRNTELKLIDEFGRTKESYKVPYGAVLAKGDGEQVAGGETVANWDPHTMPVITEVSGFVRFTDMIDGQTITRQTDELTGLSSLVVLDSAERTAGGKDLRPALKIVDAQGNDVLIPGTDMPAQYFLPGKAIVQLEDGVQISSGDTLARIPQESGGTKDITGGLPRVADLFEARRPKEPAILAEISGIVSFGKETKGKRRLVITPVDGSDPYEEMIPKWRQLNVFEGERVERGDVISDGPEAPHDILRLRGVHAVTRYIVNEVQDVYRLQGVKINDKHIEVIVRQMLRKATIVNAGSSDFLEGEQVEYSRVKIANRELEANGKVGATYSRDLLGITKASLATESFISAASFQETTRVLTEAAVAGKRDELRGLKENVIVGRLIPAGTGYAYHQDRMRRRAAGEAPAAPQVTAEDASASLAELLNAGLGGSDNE
Chain of E. coli. RNA polymerase holoenzyme supplemented with additional recombinant sigma 70 (P00579 whole entry): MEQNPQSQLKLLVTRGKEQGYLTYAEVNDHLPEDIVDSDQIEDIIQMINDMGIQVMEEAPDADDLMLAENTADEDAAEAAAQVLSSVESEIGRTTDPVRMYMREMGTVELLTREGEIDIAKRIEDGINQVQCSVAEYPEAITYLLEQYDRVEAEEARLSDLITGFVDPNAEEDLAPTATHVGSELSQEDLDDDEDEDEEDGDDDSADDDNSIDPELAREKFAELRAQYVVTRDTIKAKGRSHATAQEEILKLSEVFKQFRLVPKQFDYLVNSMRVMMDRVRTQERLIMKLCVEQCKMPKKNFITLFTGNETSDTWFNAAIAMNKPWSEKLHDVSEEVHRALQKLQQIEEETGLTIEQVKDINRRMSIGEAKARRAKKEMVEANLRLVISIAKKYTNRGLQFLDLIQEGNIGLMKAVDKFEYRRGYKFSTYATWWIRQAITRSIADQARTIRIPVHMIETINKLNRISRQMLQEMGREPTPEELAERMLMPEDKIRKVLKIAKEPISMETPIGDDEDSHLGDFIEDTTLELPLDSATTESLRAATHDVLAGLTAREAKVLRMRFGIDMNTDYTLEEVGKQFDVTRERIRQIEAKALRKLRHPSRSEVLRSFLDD

Row | Compound | CPM A (label incorporated into transcript) [1] | CPM A (label incorporated into transcript) [2]
1 | CO[C@H]1/C=C/O[C@@]2(C)Oc3c(C)c(O)c4c(O)c(c(/C=N/N5CCN(C)CC5)c(O)c4c3C2=O)NC(=O)/C(C)=C\C=C\[C@H](C)[C@H](O)[C@@H](C)[C@@H](O)[C@@H](C)[C@H](OC(C)=O)[C@@H]1C [rifampin] | 717.00 CPM and 578.50 CPM and 452.50 CPM and 605.50 CPM | –
2 | CCC(C)C1NC(=O)CNC(=O)C2Cc3c([nH]c4cc(O)ccc34)[S+]([O-])CC(NC(=O)CNC1=O)C(=O)NC(CC(N)=O)C(=O)N1CC(O)CC1C(=O)NC(C(C)C(O)CO)C(=O)N2 (stereo not drawn) [α-amanitin] | – | 6477.00 CPM and 6882.00 CPM and 6999.00 CPM and 7028.50 CPM
